# Values of other authors, collected in EP0301423B1 (CHIESI FARMACEUTICI S.p.A., priority 1987, dated 1989).
# Key:
# coronary flow = conditions: mice
# isolated coronary artery = conditions: mice
compound,measurement,setting,value
CCNc1cc(C)nc2ncnn12 [TP1],effect on coronary flow,coronary flow,increase in the coronary flow
same,effect on the isolated coronary artery,isolated coronary artery,relaxation of the isolated coronary artery
